From US12384771B2, “Pleuromutilin derivative containing thiazole-pyridine benzyl quaternary ammonium salt side chain and preparation method and use thereof” (SHAANXI UNIVERSITY OF SCIENCE AND TECHNOLOGY, priority 2022, dated 2025)
Counter-ions that a name gives are not always drawn.

Columns and labels:
Assay type in all cases: cell-based
[1] = system: Staphylococcus epidermidis ATCC 12228; experiment: MIC, microbroth dilution, standard strains; conditions: ATCC12228, ATCC 12228, read-out: Minimum inhibitory concentration
Method in brief: (§1)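 Microbroth dilution MIC; moxifloxacin positive control. Test cpds: pleuromutilin derivatives bearing a thiazole-pyridine benzyl quaternary ammonium side chain.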

[2] = system: methicillin-resistant Staphylococcus aureus ATCC 33591; experiment: MIC, microbroth dilution, standard strains; conditions: ATCC33591, ATCC 33591, read-out: Minimum inhibitory concentration
Method in brief: as §1

Salmonella ATCC 14028 = experiment: MIC, microbroth dilution, standard strains; conditions: ATCC14028, ATCC 14028, read-out: Minimum inhibitory concentration
Method in brief: as §1

[3] = system: Escherichia coli ATCC 25922; experiment: MIC, microbroth dilution, standard strains; conditions: ATCC25922, ATCC 25922, read-out: Minimum inhibitory concentration
Method in brief: as §1

[4] = system: Escherichia coli CMCC 44103; experiment: MIC, microbroth dilution, standard strains; conditions: CMCC44103, CMCC 44103, read-out: Minimum inhibitory concentration
Method in brief: as §1

[5] = system: Acinetobacter baumannii ATCC 19606; experiment: MIC, microbroth dilution, standard strains; conditions: ATCC19606, ATCC 19606, read-out: Minimum inhibitory concentration
Method in brief: as §1

[6] = system: Staphylococcus aureus ATCC 29213; experiment: MIC, microbroth dilution, standard strains; conditions: ATCC29213, ATCC 29213, read-out: Minimum inhibitory concentration
Method in brief: as §1

[7] = system: Staphylococcus aureus ATCC 25923; experiment: MIC, microbroth dilution, standard strains; conditions: ATCC25923, ATCC 25923, read-out: Minimum inhibitory concentration
Method in brief: as §1

[8] = system: carbapenem-resistant Acinetobacter baumannii (CR-AB) 18-882; experiment: MIC, clinical drug-resistant bacteria; conditions: CR-AB 18-882, read-out: Minimum inhibitory concentration against clinical drug-resistant bacteria
Experimental: (§2) The minimum inhibitory concentration (MIC) of the pleuromutilin derivative containing thiazole-pyridine benzyl quaternary ammonium salt side chain was tested with moxifloxacin as a positive control (purchased from Shanghai Macklin Biochemical Technology Co., Ltd.) using a microbroth dilution method. At the same time, the pleuromutilin derivative containing thiazole-pyridine benzyl quaternary ammonium salt side chain of the invention was compared with the marketed pleuromutilin antibiotics, such as retapamulin (purchased from Nanjing Chemlin Chemical Industry Co., Ltd.), tiamulin (purchased from Shanghai Yuanye Bio-Technology Co., Ltd) and valnemulin (purchased from Shanghai Acmec Biochemical Co., Ltd), in order to screen out pleuromutilin derivatives with better activity.
(§3) Clinical resistant bacteria include multidrug-resistant Pseudomonas aeruginosa (MDR-PA) 18-993, 18-756 and 18-126, multidrug-resistant Klebsiella pneumoniae (MDR-KP) 18-893, 18-754 and 18-1482, methicillin-resistant Staphylococcus aureus (MRSA) 18-171, 18-209 and 18-575, vancomycin-resistant Enterococcus faecalis (VRE) 18-94, 18-80 and 18-507, and carbapenem-resistant Acinetobacter baumannii (CR-AB) 18-184, 18-560 and 18-882, all the clinical drug-resistant strains were from Huashan Hospital, Fudan University.

[9] = system: multidrug-resistant Pseudomonas aeruginosa (MDR-PA) 18-756; experiment: MIC, clinical drug-resistant bacteria; conditions: MDR-PA 18-756, read-out: Minimum inhibitory concentration against clinical drug-resistant bacteria
Experimental: as §2, §3

[10] = system: multidrug-resistant Pseudomonas aeruginosa (MDR-PA) 18-993; experiment: MIC, clinical drug-resistant bacteria; conditions: MDR-PA 18-993, read-out: Minimum inhibitory concentration against clinical drug-resistant bacteria
Experimental: as §2, §3

[11] = system: multidrug-resistant Klebsiella pneumoniae (MDR-KP) 18-754; experiment: MIC, clinical drug-resistant bacteria; conditions: MDR-KP 18-754, read-out: Minimum inhibitory concentration against clinical drug-resistant bacteria
Experimental: as §2, §3

[12] = system: vancomycin-resistant Enterococcus faecalis (VRE) 18-94; experiment: MIC, clinical drug-resistant bacteria; conditions: VRE 18-94; read-out: Minimum inhibitory concentration against clinical drug-resistant bacteria
Experimental: as §2, §3

[13] = system: carbapenem-resistant Acinetobacter baumannii (CR-AB) 18-184; experiment: MIC, clinical drug-resistant bacteria; conditions: CR-AB 18-184, read-out: Minimum inhibitory concentration against clinical drug-resistant bacteria
Experimental: as §2, §3

[14] = system: methicillin-resistant Staphylococcus aureus (MRSA) 18-575; experiment: MIC, clinical drug-resistant bacteria; conditions: MRSA 18-575, read-out: Minimum inhibitory concentration against clinical drug-resistant bacteria
Experimental: as §2, §3

[15] = system: methicillin-resistant Staphylococcus aureus (MRSA) 18-171; experiment: MIC, clinical drug-resistant bacteria; conditions: MRSA 18-171, read-out: Minimum inhibitory concentration against clinical drug-resistant bacteria
Experimental: as §2, §3

[16] = system: methicillin-resistant Staphylococcus aureus (MRSA) 18-209; experiment: MIC, clinical drug-resistant bacteria; conditions: MRSA 18-209, read-out: Minimum inhibitory concentration against clinical drug-resistant bacteria
Experimental: as §2, §3

[17] = system: carbapenem-resistant Acinetobacter baumannii (CR-AB) 18-560; experiment: MIC, clinical drug-resistant bacteria; conditions: CR-AB 18-560, read-out: Minimum inhibitory concentration against clinical drug-resistant bacteria
Experimental: as §2, §3

[18] = system: vancomycin-resistant Enterococcus faecalis (VRE) 18-80; experiment: MIC, clinical drug-resistant bacteria; conditions: VRE 18-80; read-out: Minimum inhibitory concentration against clinical drug-resistant bacteria
Experimental: as §2, §3

MIC [1]: 2 µg/mL
MIC [2]: 1 µg/mL
MIC (Salmonella ATCC 14028): 2 µg/mL
MIC [3]: 1 µg/mL
MIC [4]: 0.5 µg/mL
MIC [5]: 2 µg/mL
MIC [6]: 0.125 µg/mL
MIC [7]: 0.5 µg/mL
MIC [8]: 16 µg/mL
MIC [9]: 32 µg/mL
MIC [10]: 32 µg/mL
MIC [11]: 16 µg/mL
MIC [12]: 64 µg/mL
MIC [13]: 32 µg/mL
MIC [14]: 64 µg/mL
MIC [15]: 64 µg/mL
MIC [16]: 16 µg/mL
MIC [17]: 64 µg/mL
MIC [18]: 8 µg/mL
Structure (SMILES): C=C[C@]1(C)C[C@@H](OC(=O)CSc2nc(-c3cc[n+](Cc4ccc([N+](=O)[O-])cc4)cc3)cs2)[C@]2(C)[C@H](C)CC[C@]3(CCC(=O)[C@H]32)[C@@H](C)[C@@H]1O [Compound 7, 1-(4-(nitro)benzyl)-4-(2-(8-hydroxy-4,7,9,12-tetramethyl-3-oxo-7-vinyldecahydro-4,9a-propancyclopent[8]cyclen-5-yl)oxy)-2-oxoethyl)thiazol-4-yl)pyridyl bromide salt]
